Data: US12366572B2, “Activation of bioluminescence by structural complementation” (Promega Corporation, priority 2013, dated 2025)

Biological target: NLpoly 11S (Oplophorus gracilirostris, UniProt Q9GV45, A31E/A60N/A81I/D135N/F58L/F95D/G184S/G42A/G62A/G78A/G94A/G98A/H120P/I103V/I117V/I134L/K70R/L176M/L26M/L54V/L73R/L99Q/M102E/N171T/P142E/Q151K/Q38E/Q45L/T27V/V71I/Y165I)
Assay: biochemical
Format: binding

Sequence of NLpoly 11S (Q9GV45 26-184 with the stated changes limits assumed): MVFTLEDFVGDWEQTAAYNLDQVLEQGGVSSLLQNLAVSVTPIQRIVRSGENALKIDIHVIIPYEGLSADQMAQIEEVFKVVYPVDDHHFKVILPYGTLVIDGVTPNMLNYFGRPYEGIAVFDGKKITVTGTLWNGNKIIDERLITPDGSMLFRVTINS

## Ac-VEGYRLFQEAS-NH2 [array2.71, VEGYRLFQEAS]
  Kd: 24 µM

## Ac-VTGYRLFEQAL-NH2 [array2.50, VTGYRLFEQAL]
  Kd: 40.4 µM

## Ac-VEGYRLFKKIL-NH2 [array2.82, VEGYRLFKKIL]
  Kd: 0.563 µM

## Ac-VTGYRLFQQAS-NH2 [array2.14, VTGYRLFQQAS]
  Kd: 1.11 µM

## Ac-VTGYRLFEKAL-NH2 [array2.47, VTGYRLFEKAL]
  Kd: 1.81 µM

## Ac-VTGYRLFEQIS-NH2 [array2.22, VTGYRLFEQIS]
  Kd: 10.8 µM

## Ac-VEGYRLFQKEL-NH2 [array2.93, VEGYRLFQKEL]
  Kd: 1.69 µM

## Ac-VEGYRLFKEIL-NH2 [array2.88, VEGYRLFKEIL]
  Kd: 17.8 µM

## Ac-VTGYRLFKKEL-NH2 [array2.30, VTGYRLFKKEL]
  Kd: 0.671 µM

## Ac-VEGYRLFKKAL-NH2 [array2.83, VEGYRLFKKAL]
  Kd: 1.59 µM

## Ac-VTGYRLFKQAS-NH2 [array2.5, VTGYRLFKQAS]
  Kd: 1.95 µM

## Ac-VTGYRLFEKEL-NH2 [array2.48, VTGYRLFEKEL]
  Kd: 2.44 µM

## Ac-VEGYRLFKEAS-NH2 [array2.62, VEGYRLFKEAS]
  Kd: 22.1 µM

## Ac-VTGYRLFQKIL-NH2 [array2.37, VTGYRLFQKIL]
  Kd: 0.362 µM

## Ac-VTGYRLFKKAL-NH2 [array2.29, VTGYRLFKKAL]
  Kd: 0.275 µM

## Ac-VEGYRLFQQAS-NH2 [array2.68, VEGYRLFQQAS]
  Kd: 20 µM

## Ac-VEGYRLFQQEL-NH2 [array2.96, VEGYRLFQQEL]
  Kd: 99.4 µM

## Ac-VTGYRLFQQIL-NH2 [array2.40, VTGYRLFQQIL]
  Kd: 122 µM

## Ac-VEGYRLFQQIL-NH2 [array2.94, VEGYRLFQQIL]
  Kd: 9.39 µM

## CC[C@H](C)[C@H](NC(=O)[C@H](CCCCN)NC(=O)[C@H](CCC(=O)O)NC(=O)[C@H](Cc1ccccc1)NC(=O)[C@H](CC(C)C)NC(=O)[C@H](CCCNC(=N)N)NC(=O)[C@H](Cc1ccc(O)cc1)NC(=O)CNC(=O)[C@@H](NC(=O)[C@@H](NC(C)=O)C(C)C)[C@@H](C)O)C(=O)N[C@@H](CO)C(N)=O [array2.19, VTGYRLFEKIS]
  Kd: 0.605 µM

## Ac-VTGYRLFEQEL-NH2 [array2.51, VTGYRLFEQEL]
  Kd: 85 µM

## Ac-VTGYRLFKKAS-NH2 [array2.2, VTGYRLFKKAS]
  Kd: 0.241 µM

## Ac-VEGYRLFEKAS-NH2 [array2.74, VEGYRLFEKAS]
  Kd: 4.14 µM

## Ac-VEGYRLFKKAS-NH2 [array2.56, VEGYRLFKKAS]
  Kd: 0.641 µM

## Ac-VEGYRLFEKIS-NH2 [array2.73, VEGYRLFEKIS]
  Kd: 2.15 µM

## Ac-VEGYRLFKQEL-NH2 [array2.87, VEGYRLFKQEL]
  Kd: 12.6 µM

## Ac-VEGYRLFKQAL-NH2 [array2.86, VEGYRLFKQAL]
  Kd: 2.27 µM

## Ac-VTGYRLFKQIS-NH2 [array2.4, VTGYRLFKQIS]
  Kd: 0.746 µM

## Ac-VTGYRLFKEIL-NH2 [array2.34, VTGYRLFKEIL]
  Kd: 4.41 µM

## Ac-VEGYRLFKEIS-NH2 [array2.61, VEGYRLFKEIS]
  Kd: 14.4 µM

## Ac-VEGYRLFKQAS-NH2 [array2.59, VEGYRLFKQAS]
  Kd: 2.09 µM

## Ac-VTGYRLFKEES-NH2 [array2.9, VTGYRLFKEES]
  Kd: 3.86 µM

## Ac-VTGYRLFQEEL-NH2 [array2.45, VTGYRLFQEEL]
  Kd: 35.4 µM

## Ac-VEGYRLFEQAL-NH2 [array2.104, VEGYRLFEQAL]
  Kd: 336 µM

## Ac-VEGYRLFEQIS-NH2 [array2.76, VEGYRLFEQIS]
  Kd: 52.8 µM

## Ac-VEGYRLFEQAS-NH2 [array2.77, VEGYRLFEQAS]
  Kd: 48.3 µM

## Ac-VTGYRLFEEIL-NH2 [array2.52, VTGYRLFEEIL]
  Kd: 104 µM

## Ac-VTGYRLFEKAS-NH2 [array2.20, VTGYRLFEKAS]
  Kd: 1.79 µM

## Ac-VTGYRLFKEAS-NH2 [array2.8, VTGYRLFKEAS]
  Kd: 2.57 µM

## Ac-VEGYRLFQKAS-NH2 [array2.65, VEGYRLFQKAS]
  Kd: 1.93 µM

## Ac-VTGYRLFQKAS-NH2 [array2.11, VTGYRLFQKAS]
  Kd: 0.748 µM

## Ac-VTGYRLFKQEL-NH2 [array2.33, VTGYRLFKQEL]
  Kd: 1.95 µM

## Ac-VEGYRLFQKES-NH2 [array2.66, VEGYRLFQKES]
  Kd: 2.87 µM

## Ac-VEGYRLFQQAL-NH2 [array2.95, VEGYRLFQQAL]
  Kd: 18.8 µM

## Ac-VTGYRLFQKEL-NH2 [array2.39, VTGYRLFQKEL]
  Kd: 2.48 µM

## Ac-VTGYRLFEQIL-NH2 [array2.49, VTGYRLFEQIL]
  Kd: 124 µM

## Ac-VEGYRLFQEAL-NH2 [array2.98, VEGYRLFQEAL]
  Kd: 99.9 µM

## Ac-VEGYRLFKKES-NH2 [array2.57, VEGYRLFKKES]
  Kd: 0.891 µM

## Ac-VTGYRLFKEEL-NH2 [array2.36, VTGYRLFKEEL]
  Kd: 7.78 µM

## Ac-VTGYRLFKEAL-NH2 [array2.35, VTGYRLFKEAL]
  Kd: 5.15 µM

## Ac-VTGYRLFQEAL-NH2 [array2.44, VTGYRLFQEAL]
  Kd: 16 µM

## Ac-VTGYRLFQKIS-NH2 [array2.10, VTGYRLFQKIS]
  Kd: 0.0812 µM

## Ac-VTGYRLFEQES-NH2 [array2.24, VTGYRLFEQES]
  Kd: 7.83 µM

## Ac-VEGYRLFKEAL-NH2 [array2.89, VEGYRLFKEAL]
  Kd: 42.4 µM

## Ac-VEGYRLFEKEL-NH2 [array2.102, VEGYRLFEKEL]
  Kd: 5.79 µM

## Ac-VEGYRLFEKAL-NH2 [array2.101, VEGYRLFEKAL]
  Kd: 12.6 µM

## Ac-VTGYRLFQEES-NH2 [array2.18, VTGYRLFQEES]
  Kd: 67.3 µM

## Ac-VEGYRLFQKAL-NH2 [array2.92, VEGYRLFQKAL]
  Kd: 2.02 µM

## Ac-VEGYRLFEKIL-NH2 [array2.100, VEGYRLFEKIL]
  Kd: 10.6 µM

## Ac-VEGYRLFQKIL-NH2 [array2.91, VEGYRLFQKIL]
  Kd: 2.08 µM

## Ac-VEGYRLFKQIS-NH2 [array2.58, VEGYRLFKQIS]
  Kd: 2.09 µM

## Ac-VTGYRLFKKES-NH2 [array2.3, VTGYRLFKKES]
  Kd: 0.773 µM

## Ac-VEGYRLFKKEL-NH2 [array2.84, VEGYRLFKKEL]
  Kd: 1.41 µM

## Ac-VTGYRLFQEIS-NH2 [array2.16, VTGYRLFQEIS]
  Kd: 2.56 µM

## Ac-VEGYRLFEKES-NH2 [array2.75, VEGYRLFEKES]
  Kd: 2.97 µM

## Ac-VTGYRLFKQAL-NH2 [array2.32, VTGYRLFKQAL]
  Kd: 3.56 µM

## Ac-VTGYRLFQQES-NH2 [array2.15, VTGYRLFQQES]
  Kd: 7.49 µM

## Ac-VEGYRLFKEES-NH2 [array2.63, VEGYRLFKEES]
  Kd: 220 µM

## Ac-VTGYRLFKQIL-NH2 [array2.31, VTGYRLFKQIL]
  Kd: 2.99 µM

## Ac-VTGYRLFQQEL-NH2 [array2.42, VTGYRLFQQEL]
  Kd: 19 µM

## Ac-VTGYRLFKKIL-NH2 [array2.28, VTGYRLFKKIL]
  Kd: 0.0766 µM

## Ac-VEGYRLFKEEL-NH2 [array2.90, VEGYRLFKEEL]
  Kd: 101 µM

## Ac-VTGYRLFQQIS-NH2 [array2.13, VTGYRLFQQIS]
  Kd: 0.876 µM

## Ac-VTGYRLFEQAS-NH2 [array2.23, VTGYRLFEQAS]
  Kd: 4.17 µM

## Ac-VTGYRLFEEEL-NH2 [array2.54, VTGYRLFEEEL]
  Kd: 68.3 µM

## Ac-VTGYRLFQKES-NH2 [array2.12, VTGYRLFQKES]
  Kd: 0.417 µM

## Ac-VTGYRLFEKIL-NH2 [array2.46, VTGYRLFEKIL]
  Kd: 1.92 µM

## Ac-VTGYRLFKEIS-NH2 [array2.7, VTGYRLFKEIS]
  Kd: 4.44 µM

## Ac-VEGYRLFQKIS-NH2 [array2.64, VEGYRLFQKIS]
  Kd: 0.586 µM

## Ac-VTGYRLFKQES-NH2 [array2.6, VTGYRLFKQES]
  Kd: 1.35 µM

## Ac-VEGYRLFEEAS-NH2 [array2.80, VEGYRLFEEAS]
  Kd: 1420 µM

## Ac-VTGYRLFQKAL-NH2 [array2.38, VTGYRLFQKAL]
  Kd: 0.975 µM

## Ac-VTGYRLFQEIL-NH2 [array2.43, VTGYRLFQEIL]
  Kd: 17.3 µM

## Ac-VTGYRLFKKIS-NH2 [array2.1, VTGYRLFKKIS]
  Kd: 0.0133 µM

## Ac-VEGYRLFKKIS-NH2 [array2.55, VEGYRLFKKIS]
  Kd: 0.078 µM

## Ac-VEGYRLFKQIL-NH2 [array2.85, VEGYRLFKQIL]
  Kd: 10.3 µM

## Ac-VEGYRLFQQIS-NH2 [array2.67, VEGYRLFQQIS]
  Kd: 8.14 µM

## Ac-VEGYRLFQEIS-NH2 [array2.70, VEGYRLFQEIS]
  Kd: 230 µM

## Ac-VEGYRLFEQES-NH2 [array2.78, VEGYRLFEQES]
  Kd: 252 µM
